Test results reported in patent US20060039869A1, “Intranasal delivery of antipsychotic drugs” (priority 2004, published 2006).
Where “and” joins values, the source holds several entries; their conditions need not be identical. Equal entries are not always repeated. Where two headings read alike, the source gives them in different places.

Assays:
[1] = cited from earlier work
[2] = for Tmax: healthy subjects n=4, median (range)
clinical = details: human, plasma, 2.5 mg; for Cmax: n=4, mean (CV %)

Tmax ([2]; IM 2.5 mg): 0.625 (0.25-16) h
Cmax after intranasal dose compared with intramuscular dose ([2]; IN 2.5 mg vs IM 2.5 mg): slightly higher
Tmax ([2]; IN 2.5 mg): 0.25 (0.12-0.5) h
Cmax, individual subjects ([2]; IN 2.5 mg, single subjects): 16.2 ng/mL and 7.5 to 7.9 ng/mL
half-lives, intravenous and intranasal ([2]; IV vs IN 2.5 mg): similar
AUC(0-inf) (clinical; both, im): 81.8 ng·h/mL
AUC(0-t) (clinical; both, im): 59.7 ng·h/mL
MRT (clinical; both, im): 16.1 h
Tmax (clinical; both, im): 37.5 min
Vd/F (clinical; both, im): 1360 L
half-life (clinical; both, im): 1730 min
Cmax (clinical; both, im, IM 2.5 mg): 8.42 ng/mL
bioavailability (clinical; both, intramuscular): 134%
AUC(0-inf) (clinical; both, iv): 60.4 ng·h/mL
AUC(0-t) (clinical; both, iv): 50.8 ng·h/mL
MRT (clinical; both, iv): 12.7 h
Tmax (clinical; both, iv): 15 min
Vd (clinical; both, iv): 934 L
half-life (clinical; both, iv): 1030 min
Cmax (clinical; both, iv, IV 2.5 mg): 23.3 ng/mL
AUC(0-inf) (clinical; both, other: intranasal): 37.9 ng·h/mL
AUC(0-t) (clinical; both, other: intranasal): 31.7 ng·h/mL
MRT (clinical; both, other: intranasal): 12.9 h
Tmax (clinical; both, other: intranasal): 15 min
Vd/F (clinical; both, other: intranasal): 1580 L
bioavailability (clinical; both, other: intranasal): 63.8%
half-life (clinical; both, other: intranasal): 1010 min
Cmax (clinical; both, other: intranasal, IN 2.5 mg): 9.8 ng/mL
Tmax (clinical; im): 960 min
Structure (SMILES): O=C(CCCN1CCC(O)(c2ccc(Cl)cc2)CC1)c1ccc(F)cc1 [haloperidol lactate, haloperidol]
time of peak plasma concentration ([1]; intramuscular administration): approximately 20 minutes
absolute bioavailability ([1]; oral administration): approximately 65%
time at which haloperidol concentrations reached a peak, individual subjects ([2]; IN 2.5 mg, single subjects): 7.5 min and 15 min and 30 min
